Measurements: patent US8518872B2, “Methods of using (+)-1,4-dihydro-7-[(3S,4S)-3-methoxy-4-(methylamino)-1-pyrrolidinyl]-4-OXO-1-(2-thiazolyl)-1,8-naphthyridine-3-carboxylic acid in combination therapy” (Sunesis Pharmaceuticals, Inc., priority 2007, dated 2013)
Where “and” joins values, the source holds several entries; their conditions need not be identical. Equal values may be shown once.

Assays:
[1] = system: subcutaneous H460 (non-small cell lung carcinoma); test: SNS-595 and carboplatin in non-small cell lung carcinoma H460 xenograft model; format: in vivo, athymic nude mice; conditions: SNS-595 10 mg/kg IV qw x5, carboplatin 75 mg/kg IP qw x3, combination of both
Description: The effect of co-administration of SNS-595 and carboplatin was observed on the growth of non-small cell lung carcinoma, athymic nude mice bearing subcutaneous H460. The mice were treated with SNS-595, carboplatin or the two in combination as indicated below.

[2] = system: subcutaneous A2780 xenografts (ovarian carcinoma); test: SNS-595 and cisplatin in ovarian carcinoma A2780 xenograft model; conditions: SNS-595 10 mg/kg IV qw x3, cisplatin 5 mg/kg IP qw x3, combination of both
Description: The effect of co-administration of SNS-595 and cisplatin was observed on the growth of ovarian carcinoma studied in athymic nude mice bearing subcutaneous A2780 xenografts. The mice were treated with SNS-595, cisplatin or the two in combination as indicated below.
Animal treatment was initiated when mean tumor volume was 200 mm^3. The combination was co-dosed once a week for three weeks. Tumor volumes and animal body weight were measured twice weekly.

[3] = system: subcutaneous H460 xenografts (non-small cell lung carcinoma); test: SNS-595 and gemcitabine in non-small cell lung carcinoma H460 xenograft model; format: in vivo, athymic nude mice; conditions: SNS-595 10 mg/kg IV qw x3, gemcitabine 75 mg/kg IP biw x2, combination of both; for BW Nadir: H460 xenograft mice; for BW Nadir (Day of): day of body weight nadir
Description: The effect of co-administration of SNS-595 and gemcitabine on the growth of non-small cell lung carcinoma, athymic nude mice bearing subcutaneous H460 xenografts were treated with SNS-595, gemcitabine or the two in combination as indicated below.
SNS-595 was administered once a week and gemcitabine was twice weekly as indicated above with the combination being co-dosed. In the vehicle group, the gemcitabine vehicle was administered 24 hours after the SNS-595 vehicle representing additional treatment arms in the experiment. Tumor volume and animal body weight was measured at least twice weekly.

[4] = system: subcutaneous BxPC-3 xenografts (pancreatic carcinoma); test: SNS-595 and gemcitabine in pancreatic carcinoma BxPC-3 xenograft model; format: in vivo, NIH-III mice; conditions: SNS-595 15 mg/kg IV qw x3, gemcitabine 65 mg/kg IP biw x3; for BW Nadir: BxPC-3 xenograft mice; for BW Nadir / % Tumor Growth Inhibition (Day 38) / BW Nadir (Day of): combination of both; for BW Nadir (Day of): day of body weight nadir
Description: SNS-595 was administered once a week and gemcitabine was twice weekly for two weeks followed by one additional dose as indicated above with the combination being co-dosed. Tumor volume and animal body weight was measured at least once weekly. SNS-595 was administered once a week and gemcitabine was twice weekly for two weeks followed by one additional dose as indicated above with the combination being co-dosed. Tumor volume and animal body weight was measured at least once weekly.

[5] = Solubility of SNS-595 in acidic compositions; format: physicochemical; conditions: acidic compositions (<pH 4)
Description: An illustrative example of a suitable composition comprises: 10 mg SNS-595 per mL of aqueous solution of 4.5% sorbitol that is adjusted to pH 2.5 with methanesulfonic acid. One protocol for making such a solution includes the following for making a 100 mg/10 mL presentation: 100 mg of SNS-595 and 450 mg D-sorbitol are added to distilled water; the volume is brought up to a volume of 10 mL; and the pH of the resulting solution is adjusted to 2.5 with methanesulfonic acid. The resulting composition is also suitable for lyophilization. The lyophilized form is then reconstituted with sterile water to the appropriate concentration prior to use.

Compound	% Tumor Growth Inhibition (Day 16) [1]	Tumor Growth Delay [1]	% Tumor Growth Inhibition (Day 11) [2]	Tumor Growth Delay [2]	% Tumor Growth Inhibition (Day 11) [3]	BW Nadir [3]	Tumor Growth Delay [3]	BW Nadir (Day of) [3]	BW Nadir [4]	% Tumor Growth Inhibition (Day 38) [4]	Tumor Growth Delay [4]	BW Nadir (Day of) [4]	further results
N.N.O=C([O-])C1(C(=O)[O-])CCC1.[Pt+2] [Carboplatin, carboplatin]	31.6%	12.5 days											% Tumor Growth Inhibition (Day 16) ([1]; listed as carboplatin): 32%; BW Nadir ([1]; H460 xenograft mice): −2.8%; BW Nadir (Day of) ([1]; day of body weight nadir): (Day 16)
N.N.[Cl][Pt][Cl] [Cisplatin, cisplatin]			49.0%	11.0 days									BW Nadir ([2]; A2780 xenograft mice): −10.9%; % Tumor Growth Inhibition (Day 11) ([2]; listed as cisplatin): 49%; BW Nadir (Day of) ([2]; day of body weight nadir): (Day 11)
Nc1ccn([C@@H]2O[C@H](CO)[C@@H](O)C2(F)F)c(=O)n1 [Gemcitabine, gemcitabine]					36.6%	−7.4%	5.0 days	(Day 11)	0%	20.2%	12.5 days	(Day 0)	% Tumor Growth Inhibition (Day 11) ([3]; listed as gemcitabine): 37%; % Tumor Growth Inhibition (Day 38) ([4]; listed as gemcitabine): 20%
CN[C@H]1CN(c2ccc3c(=O)c(C(=O)O)cn(-c4nccs4)c3n2)C[C@@H]1OC [SNS-595, (+)-1,4-dihydro-7-[(3S,4S)-3-methoxy-4-(methylamino)-1-pyrrolidinyl]-4-oxo-1-(2-thiazolyl)-1,8-naphthyridine-3-carboxylic acid]	53% and 53.2%	23.0 days	21.7%	5.5 days	62% and 61.9%	−5.9%	11.0 days	(Day 11)	−2.5%	26% and 25.9%	23.0 days	(Day 11)	solubility [5]: increased solubility
